What was measured:
[1] = 101 kPa, Liquid; for speed of sound: Frequency=2 MHz, Linear variable-path acoustic interferometer; for mass density: Vibrating tube method
[2] = xn = mol fraction of the nth substance listed; conditions: 101 kPa, Liquid; for speed of sound: Frequency=2 MHz, Linear variable-path acoustic interferometer; for mass density: Vibrating tube method

Cc1ccccc1Cl [2-chlorotoluene]
[1]
Conditions | mass density [kg/m3] | speed of sound [m/s]
298.15 K | 1077.38 | 1299.8
303.15 K | 1072.8 | 1283.6
308.15 K | 1068.21 | 1265.6

Cc1ccccc1Cl [2-chlorotoluene] + CCCCCCCO
[2]
Conditions | mass density, 298.15 K [kg/m3] | mass density, 303.15 K [kg/m3] | mass density, 308.15 K [kg/m3] | speed of sound, 298.15 K [m/s] | speed of sound, 303.15 K [m/s] | speed of sound, 308.15 K [m/s]
x1 = 0.0984 | 840.51 | 836.79 | 833.05 | 1324.4 | 1311 | 1289.7
x1 = 0.1921 | 861.75 | 857.88 | 853.98 | 1320.1 | 1306 | 1284
x1 = 0.2969 | 886.24 | 882.16 | 878.15 | 1313.6 | 1298.6 | 1276.2
x1 = 0.3983 | 910.69 | 906.43 | 902.26 | 1306.5 | 1290.7 | 1268.5
x1 = 0.4949 | 934.8 | 930.38 | 926.11 | 1299.3 | 1283.1 | 1260.9
x1 = 0.5961 | 960.97 | 956.41 | 952.02 | 1293.5 | 1276.2 | 1254.8
x1 = 0.7028 | 989.68 | 985.06 | 980.6 | 1289.2 | 1271.5 | 1250.4
x1 = 0.7968 | 1016.16 | 1011.5 | 1006.94 | 1287.7 | 1270.3 | 1249.7
x1 = 0.8993 | 1046.27 | 1041.59 | 1036.99 | 1289.1 | 1273.5 | 1254.3
x1 = 1 | 1077.38 | 1072.8 | 1068.21 | 1299.8 | 1283.6 | 1265.6

Cc1ccccc1Cl [2-chlorotoluene] + CCCCCCO
[2]
Conditions | mass density, 298.15 K [kg/m3] | mass density, 303.15 K [kg/m3] | mass density, 308.15 K [kg/m3] | speed of sound, 298.15 K [m/s] | speed of sound, 303.15 K [m/s] | speed of sound, 308.15 K [m/s]
x1 = 0.0974 | 839.69 | 835.89 | 832.09 | 1304.1 | 1287 | 1268.7
x1 = 0.1968 | 864.67 | 860.71 | 856.77 | 1302 | 1284.3 | 1266
x1 = 0.3046 | 892 | 887.87 | 883.78 | 1298.3 | 1280.2 | 1260.7
x1 = 0.3967 | 915.57 | 911.34 | 907.1 | 1294.3 | 1275.7 | 1255.7
x1 = 0.489 | 939.38 | 934.99 | 930.68 | 1290.1 | 1271.1 | 1250.9
x1 = 0.5955 | 967.24 | 962.7 | 958.3 | 1286.1 | 1266.2 | 1246.3
x1 = 0.6902 | 992.34 | 987.72 | 983.26 | 1283.6 | 1264.1 | 1244.4
x1 = 0.8086 | 1024.27 | 1019.61 | 1015.04 | 1284.7 | 1265.4 | 1246.2
x1 = 0.8949 | 1047.98 | 1043.25 | 1038.71 | 1289.1 | 1270.5 | 1250
x1 = 1 | 1077.38 | 1072.8 | 1068.21 | 1299.8 | 1283.6 | 1265.6

Cc1ccccc1Cl [2-chlorotoluene] + CCCCCO
[2]
Conditions | mass density, 298.15 K [kg/m3] | mass density, 303.15 K [kg/m3] | mass density, 308.15 K [kg/m3] | speed of sound, 298.15 K [m/s] | speed of sound, 303.15 K [m/s] | speed of sound, 308.15 K [m/s]
x1 = 0.0964 | 838.77 | 834.85 | 830.94 | 1280.2 | 1263 | 1250
x1 = 0.189 | 865.02 | 860.96 | 856.9 | 1282.2 | 1264 | 1250.2
x1 = 0.294 | 894.17 | 889.95 | 885.73 | 1281.9 | 1262.5 | 1247.7
x1 = 0.388 | 919.71 | 915.37 | 911.06 | 1280.9 | 1260.7 | 1244.5
x1 = 0.4962 | 948.58 | 944.07 | 939.74 | 1279 | 1258.1 | 1240.9
x1 = 0.5892 | 972.97 | 968.37 | 963.98 | 1277.5 | 1255.8 | 1238.3
x1 = 0.697 | 1000.83 | 996.18 | 991.75 | 1278 | 1256.1 | 1238
x1 = 0.8057 | 1028.54 | 1023.88 | 1019.37 | 1281 | 1260.1 | 1242.2
x1 = 0.8949 | 1051.02 | 1046.43 | 1041.83 | 1287 | 1267.2 | 1250
x1 = 1 | 1077.38 | 1072.8 | 1068.21 | 1299.8 | 1283.6 | 1265.6

Reference: the NIST ThermoML archive (doi:10.1016/j.jct.2013.08.013)
